Assay results reported in patent US12419862B2, “Use of a cathepsin s inhibitor against the formation of anti-drug antibodies” (Hoffmann-La Roche Inc., priority 2018, dated 2025).

Legend:
[1] = test system: adalimumab-specific IgG response; test: ADA against adalimumab in hIgG1 Tg mice over time, ELISA (Example 3, 63 days); format: in vivo, C57BL/6-Tg (hIgG1,k,l) mice; conditions: 40 mg/kg/day via food admix from one day before first immunization until day 28, blood samples to day 56, vs vehicle
Description: 15-week-old female mice C57BL/6-Tg (hIgG1,k,l) were purchased from Taconic (Denmark) and housed at the animal facilities in room with air-conditioned under a 12 hours light/dark cycle in macrolon boxes with enriched environment and free access to water and food. 7×10 μg of Humira (Adalimumab, Abbvie Germany GmbH) were injected at day 0, 4, 7, 11, 14, 18 and 21 subcutaneously in the right flank or the left flank alternatively. The dosage of (2S,4R)-4-[4-(1-methyl-1H-pyrazol-4-yl)-2-trifluoromethyl-benzenesulfonyl]-1-(1-trifluoromethyl-cyclopropanecarbonyl)-pyrrolidine-2-carboxylic acid (1-cyano-cyclopropyl)-amide consumption was 40 mg/kg/day. (2S,4R)-4-[4-(1-methyl-1H-pyrazol-4-yl)-2-trifluoromethyl-benzenesulfonyl]-1-(1-trifluoromethyl-cyclopropanecarbonyl)-pyrrolidine-2-carboxylic acid (1-cyano-cyclopropyl)-amide was given via food admix (Ssniff Spezialdiäten, Germany) daily from one day before the first Humira immunization until day 28. […]
Nunc Maxisorp flat-bottom 96 well ELISA plates were coated with 100 μl per well of Humira or CEA-PGLALA respectively at 5 μg/mL in NaHCO3100 mM buffer overnight at +4° C. […] 100 μl of substrate P-nitrophenyl phosphate ready to use (Life Technologies, Cat no 002212) were added per well and after 10 min incubation at room temperature, the OD at 405 nm was read as an end-point measurement with a Versamax ELISA reader.

[2] = test system: TCRβ+CD8+ T cells and NK1.1+ NKp46+ NK cells; test: PD effect of CEA-IL2v in blood, flow cytometry of CD8 T cells and NK cells (Example 5); format: in vivo; conditions: mice of Example 4; cathepsin S inhibitor 40 mg/kg/day vs vehicle
Description: 15-week-old mice C57BL/6-Tg (hIgG1,k,l) and C57BL/6 wild type mixed gender were purchased from Taconic (Denmark) and housed at the animal facilities in room with air-conditioned under a 12 hours light/dark cycle in macrolon boxes with enriched environment and free access to water and food. 7×10 μg of CEA-IL2v (Batch no GLI0144-01) were injected at day 0, 4, 7, 11, 14, 18 and 21 for the primary response, and at day 49, 53, 56 and 60 for the memory response. The CEA-112v injections were done subcutaneously in the right flank or the left flank alternatively. The dosage of (2S,4R)-4-[4-(1-methyl-1H-pyrazol-4-yl)-2-trifluoromethyl-benzenesulfonyl]-1-(1-trifluoromethyl-cyclopropanecarbonyl)-pyrrolidine-2-carboxylic acid (1-cyano-cyclopropyl)-amide consumption was 40 mg/kg/day. […]
From Example 4, 50 μl of lithium heparin whole blood were transferred into a 5 ml polystyrene round-bottom tubes (BD Falcon, Cat. no 352058) and 2 ml of freshly prepared 1× Pharm Lyse™ lysing buffer (BD Bioscience, Cat. no 555899) with UltraPur™ distilled water (Invitrogen, Cat. no 10977-035) were added. […] Data were acquired with the BD FACSDiva software v8.0 on BD LSRFortessa™ cytometer and analyzed with FlowJo™ V10.

Cn1cc(-c2ccc(S(=O)(=O)[C@@H]3C[C@@H](C(=O)NC4(C#N)CC4)N(C(=O)C4(C(F)(F)F)CC4)C3)c(C(F)(F)F)c2)cn1 [cathepsin S inhibitor, (2S,4R)-4-[4-(1-methyl-1H-pyrazol-4-yl)-2-trifluoromethyl-benzenesulfonyl]-1-(1-trifluoromethyl-cyclopropanecarbonyl)-pyrrolidine-2-carboxylic acid (1-cyano-cyclopropyl)-amide]
ADA to adalimumab (adalimumab-specific IgG) over time [1]: reduces ADA to adalimumab
Effect on CEA-IL2v pharmacology (percentages of CD8 T cells and NK cells in blood) [2]: CEA-112v pharmacology is preserved
